What was measured:
SK-BR-3 = assay: Inhibition of cells growth by colorimetric (SRB) assay, SK-BR-3
From the text: (§1) The finality of these assays is to interrupt the growth of a “in vitro” tumor cell culture by means a continued exhibition of the cells to the sample to be testing.
(§2) This form of the assay employs 96 well cell culture microplates of 9 mm diameter (Faircloth, 1988; Mosmann, 1983). Most of the cell lines are obtained from American Type Culture Collection (ATCC) derived from different human cancer types.
(§3) Cells are maintained in RPMI 1640 10% FBS, supplemented with 0.1 g/l penicillin and 0.1 g/l streptomycin sulphate and then incubated at 37° C., 5% CO2 and 98% humidity. For the experiments, cells were harvested from subconfluent cultures using trypsin and resuspended in fresh medium before plating.
(§4) Cells are seeded in 96 well microtiter plates, at 5×10^3 cells per well in aliquots of 195 μl medium, and they are allowed to attach to the plate surface by growing in drug free medium for 18 hours. Afterward, samples are added in aliquots of 5 μl in a ranging from 10 to 10^−8 μg/ml, dissolved in DMSO/EtOH/PBS (0.5:0.5:99). After 48 hours exposure, the antitumor effect are measured by the SRB methodology: cells are fixed by adding 50 μl of cold 50% (wt/vol) trichloroacetic acid (TCA) and incubating for 60 minutes at 4° C. Plates are washed with deionized water and dried. One hundred μl of SRB solution (0.4% wt/vol in 1% acetic acid) is added to each microtiter well and incubated for 10 minutes at room temperature. Unbound SRB is removed by washing with 1% acetic acid. Plates are air dried and bound stain is solubilized with Tris buffer. Optical densities are read on a automated spectrophotometric plate reader at a single wavelength of 490 nm.
(§5) The values for mean +/−SD of data from triplicate wells are calculated. Some parameters for cellular responses can be calculated: GI=growth inhibition, TGI=total growth inhibition (cytostatic effect) and LC=cell killing (cytotoxic effect).

PANC-1 = assay: Inhibition of cells growth by colorimetric (SRB) assay, PANC-1; conditions: for GI50 / CC50: Homo sapiens, PANC-1, 48 h; for GI50: read-out: GI50 PANC-1, SRB assay, 48 hours exposure; for CC50: read-out: LC50 PANC-1, SRB assay, 48 hours exposure; for TGI PANC-1: SRB assay, 48 hours exposure
From the text: as §1, §2, §3, §4, §5

SK-OV-3 = assay: Inhibition of cells growth by colorimetric (SRB) assay, SK-OV-3; conditions: for GI50 / CC50: Homo sapiens, SK-OV-3, 48 h; for GI50: read-out: GI50 SKOV-3, SRB assay, 48 hours exposure; for CC50: read-out: LC50 SKOV-3, SRB assay, 48 hours exposure; for TGI SKOV-3: SRB assay, 48 hours exposure
From the text: as §1, §2, §3, §4, §5

SK-MEL-28 = assay: Inhibition of cells growth by colorimetric (SRB) assay, SK-MEL-28; conditions: for GI50 / CC50: Homo sapiens, SK-MEL-28, 48 h; for GI50: read-out: GI50 MEL-28, SRB assay, 48 hours exposure; for CC50: read-out: LC50 MEL-28, SRB assay, 48 hours exposure; for TGI MEL-28: SRB assay, 48 hours exposure
From the text: as §1, §2, §3, §4, §5

A-549 = assay: Inhibition of cells growth by colorimetric (SRB) assay, A-549; conditions: for GI50 / CC50: Homo sapiens, A549, 48 h; for GI50: read-out: GI50 A-549, SRB assay, 48 hours exposure; for CC50: read-out: LC50 A-549, SRB assay, 48 hours exposure; for TGI A-549: SRB assay, 48 hours exposure
From the text: as §1, §2, §3, §4, §5

IGROV-ET = assay: Inhibition of cells growth by colorimetric (SRB) assay, IGROV-ET; conditions: for GI50 / CC50: Homo sapiens, 48 h; for GI50: read-out: GI50 IGROV-ET, SRB assay, 48 hours exposure; for CC50: read-out: LC50 IGROV-ET, SRB assay, 48 hours exposure; for TGI IGROV-ET: SRB assay, 48 hours exposure
From the text: as §1, §2, §3, §4, §5

K-562 = assay: Inhibition of cells growth by colorimetric (SRB) assay, K-562; conditions: for GI50 / CC50: Homo sapiens, K562, 48 h; for GI50: read-out: GI50 K-562, SRB assay, 48 hours exposure; for CC50: read-out: LC50 K-562, SRB assay, 48 hours exposure; for TGI K-562: SRB assay, 48 hours exposure
From the text: as §1, §2, §3, §4, §5

IGROV-1 = assay: Inhibition of cells growth by colorimetric (SRB) assay, IGROV-1; conditions: for GI50 / CC50: Homo sapiens, IGROV-1, 48 h; for GI50: read-out: GI50 IGROV, SRB assay, 48 hours exposure; for CC50: read-out: LC50 IGROV, SRB assay, 48 hours exposure; for TGI IGROV: SRB assay, 48 hours exposure
From the text: as §1, §2, §3, §4, §5

LoVo = assay: Inhibition of cells growth by colorimetric (SRB) assay, LoVo; conditions: for GI50 / CC50: Homo sapiens, LoVo, 48 h; for GI50: read-out: GI50 LOVO, SRB assay, 48 hours exposure; for CC50: read-out: LC50 LOVO, SRB assay, 48 hours exposure; for TGI LOVO: SRB assay, 48 hours exposure
From the text: as §1, §2, §3, §4, §5

LoVo-Dox = assay: Inhibition of cells growth by colorimetric (SRB) assay, LoVo-Dox; conditions: for GI50 / CC50: Homo sapiens, 48 h; for GI50: read-out: GI50 LOVO-DOX, SRB assay, 48 hours exposure; for CC50: read-out: LC50 LOVO-DOX, SRB assay, 48 hours exposure; for TGI LOVO-DOX: SRB assay, 48 hours exposure
From the text: as §1, §2, §3, §4, §5

HT-29 = assay: Inhibition of cells growth by colorimetric (SRB) assay, HT-29; conditions: for GI50: read-out: GI50 HT-29, SRB assay, 48 hours exposure; for TGI HT-29: SRB assay, 48 hours exposure
From the text: as §1, §2, §3, §4, §5

DU-145 = assay: Inhibition of cells growth by colorimetric (SRB) assay, DU-145; conditions: for GI50 / CC50: Homo sapiens, DU-145, 48 h; for GI50: read-out: GI50 DU-145, SRB assay, 48 hours exposure; for CC50: read-out: LC50 DU-145, SRB assay, 48 hours exposure; for TGI DU-145: SRB assay, 48 hours exposure
From the text: as §1, §2, §3, §4, §5

LNCaP = assay: Inhibition of cells growth by colorimetric (SRB) assay, LNCaP
From the text: as §1, §2, §3, §4, §5

Compound | GI50 (PANC-1) [µM] | CC50 (PANC-1) [µM] | TGI PANC-1 (PANC-1) | GI50 (SK-OV-3) [µM] | CC50 (SK-OV-3) [µM] | TGI SKOV-3 (SK-OV-3) | GI50 (SK-MEL-28) [µM] | CC50 (SK-MEL-28) [µM] | TGI MEL-28 (SK-MEL-28) | GI50 (A-549) [µM] | CC50 (A-549) [µM] | TGI A-549 (A-549) | GI50 (IGROV-ET) [µM] | CC50 (IGROV-ET) [µM] | TGI IGROV-ET (IGROV-ET) | GI50 (K-562) [µM] | CC50 (K-562) [µM] | TGI K-562 (K-562) | GI50 (IGROV-1) [µM] | CC50 (IGROV-1) [µM] | also measured
Nc1nccc2c(-c3ccnc(Oc4ccccc4)n3)c3cccnc3n12 [Compound 78] | 1.34 | 28.2 | 1.08E−05 | 0.784 | 28.2 | 1.87E−06 | 0.717 | 7.05 | 1.78E−06 | 0.737 | 8.01 | 1.68E−06 | 1.08 | 14.3 | 2.47E−06 | 5.5 | 28.2 | 2.30E−05 | 0.621 | 4.74 | GI50 (SK-BR-3; Homo sapiens, SK-BR-3, 48 h, read-out: GI50 SK-BR-3, SRB assay, 48 hours exposure): 0.528 µM; CC50 (SK-BR-3; Homo sapiens, SK-BR-3, 48 h, read-out: LC50 SK-BR-3, SRB assay, 48 hours exposure): 2.49 µM; TGI SK-BR-3 (SK-BR-3; SRB assay, 48 hours exposure): 1.15E−06; TGI IGROV (IGROV-1): 1.41E−06; GI50 (LoVo): 0.553 µM; CC50 (LoVo): 5.05 µM; TGI LOVO (LoVo): 1.44E−06; GI50 (LoVo-Dox): 0.151 µM; CC50 (LoVo-Dox): 18.2 µM; TGI LOVO-DOX (LoVo-Dox): 1.86E−06; GI50 (HT-29; Homo sapiens, HT-29, 48 h): 1.34 µM; TGI HT-29 (HT-29): 2.82E−05; GI50 (DU-145): 0.77 µM; CC50 (DU-145): 28.2 µM; TGI DU-145 (DU-145): 1.87E−06
Nc1nccc2c(-c3ccncn3)c3c(OCc4ccccc4)ccnc3n12 [Compound 98] | 5.62 | 19 | 1.03E−05 | 10.6 | 27.1 | 2.19E−05 | 7.52 | 21.2 | 1.26E−05 | 15.3 | 27.1 | 2.71E−05 | 7.22 | 20.1 | 1.21E−05 | 7.82 | 25.8 | 1.42E−05 | 8.96 | 26.8 | TGI IGROV (IGROV-1): 1.55E−05; GI50 (LoVo): 5.02 µM; CC50 (LoVo): 27.1 µM; TGI LOVO (LoVo): 1.51E−05; GI50 (LoVo-Dox): 5.92 µM; CC50 (LoVo-Dox): 27.1 µM; TGI LOVO-DOX (LoVo-Dox): 1.42E−05; GI50 (HT-29; Homo sapiens, HT-29, 48 h): 15.6 µM; CC50 (HT-29; Homo sapiens, HT-29, 48 h, read-out: LC50 HT-29, SRB assay, 48 hours exposure): 27.1 µM; TGI HT-29 (HT-29): 2.71E−05; GI50 (DU-145): 5.94 µM; CC50 (DU-145): 27.1 µM; TGI DU-145 (DU-145): 1.41E−05; GI50 (LNCaP; Homo sapiens, LNCaP, 48 h, read-out: GI50 LN-caP, SRB assay, 48 hours exposure): 1.85 µM; CC50 (LNCaP; Homo sapiens, LNCaP, 48 h, read-out: LC50 LN-caP, SRB assay, 48 hours exposure): 23.9 µM; TGI LN-caP (LNCaP; SRB assay, 48 hours exposure): 6.49E−06
